# How the values were obtained:
# [1] = test system: 4R and 3R tau protein in LAN5 cells; test: 4R/3R tau protein by Western blotting in LAN5 cells; type: cell-based; conditions: LA-N-5; 2 at 1.5 μM, LAN5, 48 h; read-out: reduction of 4R/3R protein ratio
# Protocol: Western Blotting. LAN5 cells were seeded in 6-well plates at 0.6×10^6 cells per well, treated with compound and incubated for 48 h. After removing the growth medium, the cells were washed with 1×DPBS and harvested by trypsinization. Total protein was extracted with Mammalian Protein Extraction Reagent (M-PER, Thermo Scientific) per the manufacturer's protocol. Protein concentrations were determined using a Pierce Micro BCA Protein Assay Kit per the manufacturer's recommended protocol. Approximately 20 μg of total protein from each biological sample was separated on a sodium dodecyl sulfate (SDS)-polyacrylamide gel (5% (w/v) polyacrylamide stacking layer; 12% (w/v) polyacrylamide separating layer), followed by transferring to a polyvinylidene fluoride (PVDF; 0.45 μm) membrane. […] After three more washes with 1×TBST for 15 min each, 4R, 3R tau protein, or B-actin were detected using SuperSignal West Pico Chemiluminescent Substrate (Pierce Biotechnology).
# After imaging, the membrane was stripped with 1× Stripping Buffer (200 mM glycine with 0.1% SDS, pH 2.2) for 0.5 h at room temperature, and β-actin levels were detected as described above, except using a β-actin primary antibody (Cell Signaling Technology, 4970S; 1:5000 dilution). ImageJ software was used for the quantification of the protein bands.
# [2] = test system: DDPAC MAPT exon 10 mini-gene luciferase reporter; test: Luciferase reporter assay of exon 10 splicing, DDPAC mini-gene in HeLa cells; type: cell-based
# Protocol: Luciferase-reporter Assay to Study Exon 10 Alternative Splicing. The exon 10 mini-genes, both WT and DDPAC and mutant thereof, fused to firefly luciferase, have been previously described.^18 HeLa cells were seeded in 60 mm diameter dishes and incubated for 12-16 h to 70% confluency. They were then transfected with WT, WT+I17T, DDPAC, or DDPAC+I17T luciferase reporter minigenes using JetPrime (Polyplus Transfection) per the manufacturer's recommended protocol and incubated for 4 h. After transfection, the cells were collected by trypsinization and re-seeded in 96-well plates at 0.2×10^5 cells per well, followed by treatment of compounds after 4 h. Compound stocks prepared in DMSO were diluted in growth medium and added to cells with final DMSO concentration at 0.1% (v/v). After a 48 h treatment period, the cells were washed with 1× DPBS. Each well was added with a mixture of 10 μL WST-1 reagent and 90 μL of growth medium. After incubation at 37° C. for 45 min, absorbance was measured at 450 and 690 nm. A690 as background was subtracted from A450 to obtain A450′. After removal of WST-1/DMEM from wells, the cells were washed again with 1×DPBS and treated with 100 μL of One-Glo EX reagent (Promega, E8110) per well. The plate was incubated at room temperature for 20 min and the luminescence was measured with a […] plate reader (1000 ms integration time). The resulted luminescence was normalized to A450′.
# [3] = test system: WT tau RNA duplex; test: NMR spectral analysis (WaterLOGSY, 1D, 2D NOESY) with WT tau duplex; type: binding
# Protocol: Preparation of NMR Samples. Two duplex-forming oligoribonucleotides r (5′-[…]-3′ (SEQ ID NO: 3))+r(5′[…]-3′ (SEQ ID NO: 4)) were designed to mimic the stem of the tau wild type (WT) hairpin. Individual RNA oligonucleotides were combined in 400 μL of NMR Buffer [10 mM KH2PO4/K2HPO4, pH 6.0 and 0.5 mM EDTA] in H2O or 100% D2O with a final RNA duplex concentration of 15 μM for WaterLOGSY experiments, […] was added to 5% (v/v) to provide a lock signal. RNA samples were annealed by heating to 95° C. for 3 min, followed by slow cooling to room temperature before being added to Shigemi NMR tubes (Shigemi, Inc.). Compound of interest was added to a final compound: RNA molar ratio of 20.0 for WaterLOGSY experiments, 2.0 for 1D ^1H H2O experiments, and 1.5 for 2D ^1NOESY experiments.
# NMR Spectroscopy. NMR spectra were acquired on Bruker Avance III 600 and 700 MHz spectrometers equipped with cryoprobes. WaterLOGSY spectra were acquired at 298 K, 1D NMR spectra of samples in 95% H2O/5% D2O were acquired at 283 K, and 2D NOESY spectra in 100% D2O were acquired at 308 K. For 1D spectra of samples in 95% H2O/5% D2O, an excitation sculpting sequence during acquisition suppressed the water signal. Proton chemical shifts were referenced internally to the frequency of water. WaterLOGSY and 1D ^1H spectra were processed using Bruker TopSpin and 2D NMR spectra were processed with NMRPipe^1 and assigned with SPARKY^2.
compound,measurement,setting,value
"COc1cc(N)ncc1CCCN(C)CCCn1cnc2c3ccccc3n(C)c2c1=O [Compound 2, 3-(3-((3-(6-amino-4-methoxypyridin-3-yl)propyl)(methyl)amino)propyl)-5-methyl-3,5-dihydro-4H-pyrimido[5,4-b]indol-4-one]",inhibition at 1.5 µM,[1],54 ± 9%
same,improvement in cellular luciferase reporter assay compared to 1,[2]; 2 vs 1,at least 10 fold
same,exclusion of exon 10 among eight conjugates (reduction of luciferase activity),"[2]; DDPAC mini-gene, HeLa",excluded exon 10 to the greatest extent
same,IC50,"[2]; Homo sapiens, HeLa, DDPAC mini-gene, 48 h, read-out: IC50, inhibition of luciferase activity (exon 10 inclusion)",600 ± 300 nM
same,WaterLOGSY on addition of RNA,"[3]; 300 μM of 2, WT tau duplex, 298 K","changed the sign of the NOE, resulting in the appearance of negative peaks"
same,RNA 1D 1H (imino proton) spectrum on addition of compound,[3]; 0.5-2.0 equivalents of 2,dose dependent changes in the RNA's 1D ^1H spectrum
same,NOE between compound and RNA,"[3]; 2D NOESY, 400 ms mixing time, 35° C.",A single NOE was observed from H5/H6 of the compound to G17H1′

# From patent publication US20260308158A1, “TARGETING RNAS ASSOCIATED WITH TAUOPATHIES WITH SMALL MOLECULES” (University of Florida Research Foundation, Incorporated, priority 2023, published 2026)
